One data set addresses Nav 1.7 (Homo sapiens (Human), UniProt Q15858). In words: Nav 1.7 in vitro assay (IonWorks Quattro population patch-clamp). Format: cell-based. As to conditions: 293 cells stably transfected with Nav 1.7; for IC50: 26th pulse to -20 mV, 5 Hz. On the procedure: (§1) Nav 1.7 and Nav 1.5 In Vitro Assay
(§2) 293 cells stably transfected with either Nav 1.7 or with Nav 1.5 were recorded in population patch-clamp mode with the IonWorks® Quattro automated electrophysiology system in accordance with the manufacturer's specifications (Molecular Devices, LLC, Sunnyvale, Calif.). Sodium channel currents were measured in response to a train of depolarizations that induced successively greater inactivation.
(§3) Cells were held at −110 mV for three seconds (Nav 1.7) or half a second (Nav 1.5) from a holding voltage of −15 mV, then put through a series of 26 pulses of 150 msec duration to −20 mV at a frequency of 5 Hz. Cells were then left unclamped for a period of 3 to 8 minutes while a single concentration of test compound was added. Cells were then reclamped and put through the same voltage protocol. Current at the end of the 26th pulse to −20 mV was subtracted from the peak current evoked by the 26th pulse to −20 mV to correct for leak current. Percent block was calculated for each concentration in duplicate, and IC50 curves were fitted to percent block as a function of concentration.
(In general: Patch clamp records ionic current or voltage across a cell membrane.)

A further data set concerns the target Nav 1.5 (Homo sapiens (Human), UniProt Q14524). Put plainly: Nav 1.5 in vitro assay (IonWorks Quattro population patch-clamp). Format: cell-based. Particulars: 293 cells stably transfected with Nav 1.5; 26th pulse to -20 mV, 5 Hz. The procedure:
as §1, §2, §3

These results are taken from US9079902B2, “Heteroaryl sodium channel inhibitors” (AMGEN INC., priority 2011, dated 2015).

Where a name gives a salt, the structure may show the parent alone.

Nav 1.7, sequence (Q15858 whole entry): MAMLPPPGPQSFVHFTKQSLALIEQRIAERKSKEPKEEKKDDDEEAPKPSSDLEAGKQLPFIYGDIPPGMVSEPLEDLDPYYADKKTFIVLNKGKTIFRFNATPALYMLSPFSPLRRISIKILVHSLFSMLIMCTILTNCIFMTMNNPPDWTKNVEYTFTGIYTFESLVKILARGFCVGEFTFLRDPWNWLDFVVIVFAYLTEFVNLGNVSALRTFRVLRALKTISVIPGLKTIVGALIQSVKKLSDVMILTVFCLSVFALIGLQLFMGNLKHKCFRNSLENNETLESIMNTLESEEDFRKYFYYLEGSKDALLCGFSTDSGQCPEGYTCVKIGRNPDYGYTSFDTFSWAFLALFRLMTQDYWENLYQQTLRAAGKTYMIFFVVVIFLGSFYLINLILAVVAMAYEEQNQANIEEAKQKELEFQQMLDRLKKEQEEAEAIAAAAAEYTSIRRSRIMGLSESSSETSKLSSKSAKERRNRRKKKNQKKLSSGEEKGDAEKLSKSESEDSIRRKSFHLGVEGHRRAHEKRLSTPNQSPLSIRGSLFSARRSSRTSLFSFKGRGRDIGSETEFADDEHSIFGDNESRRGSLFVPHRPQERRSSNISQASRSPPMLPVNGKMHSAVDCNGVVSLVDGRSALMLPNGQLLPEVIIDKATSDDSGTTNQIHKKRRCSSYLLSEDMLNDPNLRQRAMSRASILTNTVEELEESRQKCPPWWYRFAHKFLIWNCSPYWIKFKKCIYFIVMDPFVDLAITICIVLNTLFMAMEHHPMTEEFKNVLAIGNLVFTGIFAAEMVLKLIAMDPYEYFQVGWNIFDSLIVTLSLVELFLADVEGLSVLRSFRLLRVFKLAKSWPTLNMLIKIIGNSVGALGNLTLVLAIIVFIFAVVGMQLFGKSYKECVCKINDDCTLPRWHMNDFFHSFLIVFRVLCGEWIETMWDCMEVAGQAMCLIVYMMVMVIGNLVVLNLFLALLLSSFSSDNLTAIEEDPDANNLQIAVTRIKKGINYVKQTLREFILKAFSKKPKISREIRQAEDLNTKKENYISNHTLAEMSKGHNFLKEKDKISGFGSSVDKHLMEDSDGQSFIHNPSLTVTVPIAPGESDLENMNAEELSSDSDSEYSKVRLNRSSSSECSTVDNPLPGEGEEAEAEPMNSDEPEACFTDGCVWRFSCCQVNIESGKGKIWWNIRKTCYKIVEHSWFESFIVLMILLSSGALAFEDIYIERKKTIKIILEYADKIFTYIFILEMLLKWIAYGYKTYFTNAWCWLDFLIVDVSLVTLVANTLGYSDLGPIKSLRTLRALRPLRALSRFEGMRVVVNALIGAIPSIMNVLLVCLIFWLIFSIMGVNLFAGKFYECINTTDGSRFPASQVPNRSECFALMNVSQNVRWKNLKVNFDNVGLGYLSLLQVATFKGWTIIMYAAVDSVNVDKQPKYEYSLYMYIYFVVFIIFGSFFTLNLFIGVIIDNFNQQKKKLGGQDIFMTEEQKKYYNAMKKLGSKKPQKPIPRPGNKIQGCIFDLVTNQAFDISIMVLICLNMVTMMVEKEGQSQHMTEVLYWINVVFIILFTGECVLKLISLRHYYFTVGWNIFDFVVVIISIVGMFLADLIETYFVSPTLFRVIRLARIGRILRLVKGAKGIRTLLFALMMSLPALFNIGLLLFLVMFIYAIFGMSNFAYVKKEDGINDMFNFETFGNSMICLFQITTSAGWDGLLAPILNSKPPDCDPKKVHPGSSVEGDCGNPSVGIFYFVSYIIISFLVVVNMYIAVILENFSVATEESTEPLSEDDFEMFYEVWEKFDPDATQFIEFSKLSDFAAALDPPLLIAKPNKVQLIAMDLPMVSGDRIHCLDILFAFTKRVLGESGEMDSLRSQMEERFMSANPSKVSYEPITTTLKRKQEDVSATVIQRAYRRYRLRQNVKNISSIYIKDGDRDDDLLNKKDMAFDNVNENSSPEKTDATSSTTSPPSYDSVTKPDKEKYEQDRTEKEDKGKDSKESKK
Nav 1.5, sequence (Q14524 whole entry): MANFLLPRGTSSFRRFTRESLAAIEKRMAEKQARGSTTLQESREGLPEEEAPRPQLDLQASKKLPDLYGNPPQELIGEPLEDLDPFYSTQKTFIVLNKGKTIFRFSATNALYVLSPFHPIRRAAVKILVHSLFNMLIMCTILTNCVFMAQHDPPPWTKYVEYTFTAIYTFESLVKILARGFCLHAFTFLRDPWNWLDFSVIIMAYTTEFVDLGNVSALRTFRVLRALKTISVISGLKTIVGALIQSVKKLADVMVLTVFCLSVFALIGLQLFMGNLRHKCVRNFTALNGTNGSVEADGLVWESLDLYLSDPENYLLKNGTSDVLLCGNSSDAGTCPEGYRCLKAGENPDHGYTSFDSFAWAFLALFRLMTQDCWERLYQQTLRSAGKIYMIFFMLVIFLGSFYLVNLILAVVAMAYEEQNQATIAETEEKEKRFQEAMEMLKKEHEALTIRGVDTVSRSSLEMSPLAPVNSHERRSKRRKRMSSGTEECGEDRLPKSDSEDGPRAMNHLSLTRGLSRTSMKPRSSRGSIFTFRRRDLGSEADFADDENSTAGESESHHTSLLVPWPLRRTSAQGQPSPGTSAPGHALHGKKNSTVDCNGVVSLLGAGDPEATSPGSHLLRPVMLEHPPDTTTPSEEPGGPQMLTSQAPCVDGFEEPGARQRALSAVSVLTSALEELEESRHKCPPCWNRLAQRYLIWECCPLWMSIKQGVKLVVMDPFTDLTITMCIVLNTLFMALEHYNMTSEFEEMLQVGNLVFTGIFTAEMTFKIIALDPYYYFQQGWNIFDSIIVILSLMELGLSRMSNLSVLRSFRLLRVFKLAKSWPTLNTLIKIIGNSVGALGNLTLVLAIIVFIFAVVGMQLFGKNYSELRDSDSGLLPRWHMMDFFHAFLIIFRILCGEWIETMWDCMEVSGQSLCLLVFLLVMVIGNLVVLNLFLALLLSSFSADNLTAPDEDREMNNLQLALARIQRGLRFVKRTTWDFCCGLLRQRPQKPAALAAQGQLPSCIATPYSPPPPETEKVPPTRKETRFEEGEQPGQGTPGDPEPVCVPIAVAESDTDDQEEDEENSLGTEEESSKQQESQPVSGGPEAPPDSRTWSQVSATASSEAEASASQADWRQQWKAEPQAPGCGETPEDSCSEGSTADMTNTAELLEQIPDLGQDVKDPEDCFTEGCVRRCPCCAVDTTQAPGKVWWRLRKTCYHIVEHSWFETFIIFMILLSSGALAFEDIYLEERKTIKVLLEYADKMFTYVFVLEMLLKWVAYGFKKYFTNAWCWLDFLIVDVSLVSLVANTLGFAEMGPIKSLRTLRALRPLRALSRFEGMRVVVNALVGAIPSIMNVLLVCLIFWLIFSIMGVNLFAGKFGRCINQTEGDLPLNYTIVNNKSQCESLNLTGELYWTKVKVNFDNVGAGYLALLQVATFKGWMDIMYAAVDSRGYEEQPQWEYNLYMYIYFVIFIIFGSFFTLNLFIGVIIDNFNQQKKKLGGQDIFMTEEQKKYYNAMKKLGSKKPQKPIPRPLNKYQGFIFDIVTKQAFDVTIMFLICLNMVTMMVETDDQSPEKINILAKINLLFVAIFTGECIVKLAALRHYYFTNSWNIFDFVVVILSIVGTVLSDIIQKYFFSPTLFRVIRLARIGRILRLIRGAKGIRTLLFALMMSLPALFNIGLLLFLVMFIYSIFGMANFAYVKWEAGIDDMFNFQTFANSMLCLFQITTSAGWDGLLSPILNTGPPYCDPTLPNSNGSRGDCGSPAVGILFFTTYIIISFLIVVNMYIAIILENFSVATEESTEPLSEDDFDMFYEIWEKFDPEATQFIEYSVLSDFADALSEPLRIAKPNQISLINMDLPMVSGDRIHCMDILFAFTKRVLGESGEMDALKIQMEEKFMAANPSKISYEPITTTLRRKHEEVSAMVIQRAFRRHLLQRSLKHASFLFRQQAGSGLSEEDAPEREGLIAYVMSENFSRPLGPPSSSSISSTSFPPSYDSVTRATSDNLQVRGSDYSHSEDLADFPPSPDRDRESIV

Consider `Cn1cc(-c2cccnc2)c2ccc(S(=O)(=O)Nc3ncns3)cc21` [Example 9, 1-Methyl-3-(Pyridin-3-yl)-N-(1,2,4-Thiadiazol-5-yl)-1H-Indole-6-Sulfonamide], for which the half-inhibitory concentration (IC50) on Nav 1.7 is 1.7 µM; against Nav 1.5, over 10 µM.
In the case of `Cn1cc(-c2cc(F)ccc2F)c2ccc(S(=O)(=O)Nc3ncns3)cc21` [Example 10, 3-(2,5-Difluorophenyl)-1-Methyl-N-(1,2,4-Thiadiazol-5-yl)-1H-Indole-6-Sulfonamide], the results for the half-inhibitory concentration (IC50) at Nav 1.7 and on Nav 1.5 were 2.13 µM and over 10 µM, respectively.
On the same counts, the results for `Cn1nccc1-c1cc(C(F)(F)F)ccc1-c1cn(C)c2cc(S(=O)(=O)Nc3nccs3)ccc12` [Example 11, 1-Methyl-3-(2-(1-Methyl-1H-Pyrazol-5-yl)-4-(Trifluoromethyl)Phenyl)-N-(Thiazol-2-yl)-1H-Indole-6-Sulfonamide] are 3.19 µM and over 10 µM.
As for `Cn1nccc1-c1cc(C(F)(F)F)ccc1-c1cn(C)c2cc(S(=O)(=O)Nc3ccncn3)ccc12` [Example 12, 1-Methyl-3-(2-(1-Methyl-1H-Pyrazol-5-yl)-4-(Trifluoromethyl)Phenyl)-N-(Pyrimidin-4-yl)-1H-Indole-6-Sulfonamide], the results for the IC50 against Nav 1.7 and against Nav 1.5 were 0.835 µM and over 10 µM, respectively.
The like results for `Cn1nccc1-c1cc(C(F)(F)F)ccc1-c1cn(C)c2cc(S(=O)(=O)Nc3nncs3)ccc12` [Example 13, 1-Methyl-3-(2-(1-Methyl-1H-Pyrazol-5-yl)-4-(Trifluoromethyl)Phenyl)-N-(1,3,4-Thiadiazol-2-yl)-1H-Indole-6-Sulfonamide] were, in that order, 1.86 µM and over 10 µM.
On the same counts, the results for `CC#Cc1cncc(-c2cn(C)c3cc(S(=O)(=O)Nc4ncns4)ccc23)c1` [Example 14, 1-Methyl-3-(5-(Prop-1-Yn-1-yl)Pyridin-3-yl)-N-(1,2,4-Thiadiazol-5-yl)-1H-Indole-6-Sulfonamide] are 3.29 µM and over 10 µM.
With `Cn1cc(-c2cc(-c3ccncc3)cc(C(F)(F)F)c2)c2ccc(S(=O)(=O)Nc3ncns3)cc21` [Example 15, 1-Methyl-3-(3-(Pyridin-4-yl)-5-(Trifluoromethyl)Phenyl)-N-(1,2,4-Thiadiazol-5-yl)-1H-Indole-6-Sulfonamide], the 50% inhibitory concentration (IC50) was 1.54 µM against Nav 1.7 and over 10 µM against Nav 1.5.
For the molecule `Cn1cc(-c2ccc(C(F)(F)F)cc2C#N)c2ccc(S(=O)(=O)Nc3ncns3)cc21` [Example 16, 3-(2-Cyano-4-(Trifluoromethyl)Phenyl)-1-Methyl-N-(1,2,4-Thiadiazol-5-yl)-1H-Indole-6-Sulfonamide], the IC50 was 0.551 µM against Nav 1.7 and over 10 µM against Nav 1.5.
On the same counts, the results for `Cn1cc(-c2cc(Br)cc(C(F)(F)F)c2)c2ccc(S(=O)(=O)Nc3ncns3)cc21` [Example 17, 3-(3-Bromo-5-(Trifluoromethyl)Phenyl)-1-Methyl-N-(1,2,4-Thiadiazol-5-yl)-1H-Indole-6-Sulfonamide] are 9.11 µM and over 10 µM.
On the same counts, the results for `Cn1cc(-c2ccc(C(F)(F)F)cc2-c2ccncc2)c2ccc(S(=O)(=O)Nc3ncns3)cc21` [Example 18, 1-Methyl-3-(2-(Pyridin-4-yl)-4-(Trifluoromethyl)Phenyl)-N-(1,2,4-Thiadiazol-5-yl)-1H-Indole-6-Sulfonamide] are 0.05 µM and over 10 µM.
On the same counts, the results for `Cn1cc(-c2ccc(C(F)(F)F)cc2-c2ccn(C3CNC3)n2)c2ccc(S(=O)(=O)Nc3ncns3)cc21` [Example 19, 3-(2-(1-(Azetidin-3-yl)-1H-Pyrazol-3-yl)-4-(Trifluoromethyl)Phenyl)-1-Methyl-N-(1,2,4-Thiadiazol-5-yl)-1H-Indole-6-Sulfonamide Hydrochloride] are 0.263 µM and over 10 µM.
Consider `Cc1sc(NS(=O)(=O)c2ccc3c(-c4ccc(C(F)(F)F)cc4-c4ccnn4C)cn(C)c3c2)nc1C(F)(F)F` [Example 20, 1-Methyl-3-(2-(1-Methyl-1H-Pyrazol-5-yl)-4-(Trifluoromethyl)Phenyl)-N-(5-Methyl-4-(Trifluoromethyl)Thiazol-2-yl)-1H-Indole-6-Sulfonamide], for which the inhibition at 4.9 µM against Nav 1.7 (HEK293, at 4.9 μM) turned out to be 36.2%. For the same molecule, the IC50 against Nav 1.5 was over 10 µM.
Take `Cn1cc(-c2ccc(C(F)(F)F)cc2-c2cn[nH]c2)c2ccc(S(=O)(=O)Nc3ncns3)cc21` [Example 21, 3-(2-(1H-Pyrazol-4-yl)-4-(Trifluoromethyl)Phenyl)-1-Methyl-N-(1,2,4-Thiadiazol-5-yl)-1H-Indole-6-Sulfonamide]: the IC50 is 0.0375 µM on Nav 1.7 and over 10 µM against Nav 1.5.
The like results for `Cn1cc(-c2ccc(C(F)(F)F)cc2C2=CCNCC2)c2ccc(S(=O)(=O)Nc3ncns3)cc21` [Example 22, 1-Methyl-3-(2-(1,2,3,6-Tetrahydropyridin-4-yl)-4-(Trifluoromethyl)Phenyl)-N-(1,2,4-Thiadiazol-5-yl)-1H-Indole-6-Sulfonamide] were, in that order, 0.0425 µM and over 10 µM.
The like results for `Cn1cc(-c2ccc(C(F)(F)F)cc2Cl)c2ccc(S(=O)(=O)Nc3ncns3)cc21` [Example 23, 3-(2-Chloro-4-(Trifluoromethyl)Phenyl)-1-Methyl-N-(1,2,4-Thiadiazol-5-yl)-1H-Indole-6-Sulfonamide] were, in that order, 0.687 µM and over 10 µM.
In the case of `Cn1nccc1-c1cc(C(F)(F)F)ccc1-c1c[nH]c2nc(S(=O)(=O)Nc3ncns3)ccc12` [Example 25, 3-(2-(1-Methyl-1H-Pyrazol-5-yl)-4-(Trifluoromethyl)Phenyl)-N-(1,2,4-Thiadiazol-5-yl)-1H-Pyrrolo[2,3-B]Pyridine-6-Sulfonamide], the figures for the concentration for half-maximal inhibition (IC50) at Nav 1.7 and against Nav 1.5 were 6.7 µM and 8.55 µM, respectively.
As for `Cn1nccc1-c1cc(C(F)(F)F)ccc1-c1cn(C)c2nc(S(=O)(=O)Nc3ncns3)ccc12` [Example 26, 1-Methyl-3-(2-(1-Methyl-1H-Pyrazol-5-yl)-4-(Trifluoromethyl)Phenyl)-N-(1,2,4-Thiadiazol-5-yl)-1H-Pyrrolo [2,3-B]Pyridine-6-Sulfonamide], the results for the 50% inhibitory concentration (IC50) on Nav 1.7 and on Nav 1.5 were 1.02 µM and over 10 µM, respectively.
On the same counts, the results for `CC(=O)n1cc(-c2ccc(C(F)(F)F)cc2-c2ccnn2C)c2ccc(S(=O)(=O)Nc3ncns3)nc21` [Example 27, 1-Acetyl-3-(2-(1-Methyl-1H-Pyrazol-5-yl)-4-(Trifluoromethyl)Phenyl)-N-(1,2,4-Thiadiazol-5-yl)-1H-Pyrrolo [2,3-B]Pyridine-6-Sulfonamide] are 0.674 µM and over 10 µM.
For the molecule `Cn1nccc1-c1cc(C(F)(F)F)ccc1-c1cn(C)c2cc(S(=O)(=O)Nc3nc(Br)ns3)ccc12` [Example 50, N-(3-Bromo-1,2,4-Thiadiazol-5-Yl)-1-Methyl-3-(2-(1-Methyl-1H-Pyrazol-5-Yl)-4-(Trifluoromethyl)Phenyl)-1H-Indole-6-Sulfonamide], the 50% inhibitory concentration (IC50) against Nav 1.7 was 1.38 µM; against Nav 1.5, over 10 µM.
Consider `Cn1cc(-c2ccncc2Cl)c2ccc(S(=O)(=O)Nc3ncns3)cc21` [Example 51, 3-(3-Chloropyridin-4-Yl)-1-Methyl-N-(1,2,4-Thiadiazol-5-Yl)-1H-Indole-6-Sulfonamide], for which the half-inhibitory concentration (IC50) was 8.53 µM against Nav 1.7 and over 10 µM on Nav 1.5.
The like results for `Cn1cc(-c2cccc3c2CCNC3)c2ccc(S(=O)(=O)Nc3ncns3)cc21` [Example 53, 1-Methyl-3-(1,2,3,4-Tetrahydroisoquinolin-5-Yl)-N-(1,2,4-Thiadiazol-5-Yl)-1H-Indole-6-Sulfonamide Hydrochloride] were, in that order, 0.292 µM and over 10 µM.

A word on the IC50: it is the concentration that gives 50% inhibition. Lower therefore signals greater potency. Usually inhibition stands for the percentage by which the read-out fell short of the control.
